This is an account of results in article PMC8116058, “De novo macrocyclic peptides dissect energy coupling of a heterodimeric ABC transporter by multimode allosteric inhibition” (eLife, 2021).

Assay [1] can be described thus: Fluorescence anisotropy with empty liposomes (specificity control). The settings on record: CP^F 50 nM. In kind it is binding. As to the method:
In order to analyze the binding affinity and specificity of CPs to TmrAB, we established a fluorescence polarization assay. Fluorescein-labeled CP^Fs were incubated with increasing concentrations of TmrAB reconstituted in liposomes at a protein-to-lipid ratio of 1:20 (w/w). […] To address whether the CPs recognize a linear or non-linear epitope, we examined the binding of CP^Fs after disrupting the quaternary and tertiary structure of TmrAB complexes by adding anionic detergent SDS.
Figure 2. […] (A, B) Equilibrium binding analysis. Fluorescence anisotropy of CP^Fs (50 nM) was determined at λex/em = 485/520 nm with increasing concentrations of TmrAB which was reconstituted in liposomes. TmrAB concentrations were calculated based on the random (50/50%) orientation in proteoliposomes ([Stefan et al., 2020]). As a control, equal amounts of empty liposomes were added to CP^Fs (dashed lines, open symbols). The difference in fluorescence polarization was normalized to free (0%) and 100% bound CP^F. Mean values ± SD (n = 3) are shown, and data were analyzed by a one-site binding model. […] Streptavidin beads loaded with CP14^B (1 µM) were mixed with purified TmrAB (60 nM) for 1 hr at 4°C. Beads were washed and bound TmrAB was eluted by adding SDS loading buffer for 10 min at 95°C. Amounts of TmrA in input (I), flow-through (FT), wash fraction (W), and eluate (E) were analyzed by SDS-PAGE and immunoblotting (α-His). Beads without CP^B served as negative control (right panel). (D) One-step purification of TmrAB via immobilized CP14^B matrices. Streptavidin-agarose beads were loaded with CP14^B (1 µM) and mixed with DDM-solubilized membranes of E. coli containing TmrAB as described in (C). Bound TmrAB was eluted in SDS loading buffer and analyzed by SDS-PAGE (silver stain). (E) Native mass spectrometry. TmrAB (4 µM) was buffer exchanged to ESI buffer and incubated with a 2-fold molar excess of CP14^F for 10 min on ice. Protein complexes were investigated by ESI-TOF-mass spectrometry. […] Figure 2—source data 1. Source data for Figure 2. Figure 2—figure supplement 1. […] (A) CP^Bs-mediated isolation of solubilized TmrAB. Streptavidin matrices were loaded with CP^Bs (1 µM) and incubated with purified TmrAB (60 nM) for 1 hr at 4°C. Beads without CP^Bs served as control (see Figure 2C). Bound TmrAB complexes were eluted by the addition of SDS loading buffer for 10 min at 95°C. TmrAB in input (I), flow-through (FT), washing fraction (W), and eluate (E) was analyzed by SDS-PAGE and immunoblotting (α-His). […] Bound TmrAB complexes were eluted in SDS loading buffer and analyzed by SDS-PAGE (silver stain). […] CP^F-TmrAB complexes were analyzed by gel filtration. […] Fluorescence anisotropy was determined at λex/em = 485/520 nm. […]
For orientation: In fluorescence polarisation assays a small probe gives low polarisation when free and higher when bound to something large.

Another assay has as its system TmrAB. The assay can be described thus: Competition of CP^F binding by substrate peptides (fluorescence anisotropy). Details: species or system Thermus thermophilus. The source says:
To elucidate the mechanistic basis for the inhibition of ATP hydrolysis and substrate transport, we investigated the effects of CPs on substrate binding. In the first approach, fluorescent CP^Fs were used as reporters in fluorescence polarization. […] In addition, we examined the impact of CP^Bs on ATP binding to TmrAB by scintillation proximity assays (SPA) (Figure 4C). […] Taken together, CPs are high-affinity allosteric inhibitors of TmrAB that leave ATP binding and substrate interaction largely unaffected, while impairing ATP hydrolysis and substrate translocation across the membrane.
Figure 4. […] (A) CP^Fs binding TmrAB is not affected by substrate peptide binding. […] For competition, C4^ATTO655 peptide (2 µM) or R9LQK peptide (200 µM) were added. (B) Binding of C4F peptide is not affected by CP^Bs. C4F peptides (50 nM) were mixed with TmrAB (4 µM), and fluorescence anisotropy was monitored as described in (A). For competition, C4^ATTO655 (10 µM) or CP^Bs (6 µM) were added. […] TmrAB (0.2 µM) were immobilized on SPA beads and incubated with ATP (3 μM, traced with ^3H-ATP) in the presence and absence of CP^Bs (1 µM each) for 30 min on ice. ATP binding was monitored by SPA. Background values were determined after releasing TmrAB complexes from the beads by adding imidazole (200 mM). The background signal in the absence of CP^Bs was set to 0 cpm. […] As this is an equilibrium experiment, this can be rationalized by the fact that CP13 stabilizes the ATP-bound OF conformer. Figure 4—source data 1. Source data for Figure 4.
To determine equilibrium binding constants, CP^Fs (50 nM) were incubated with increasing concentrations of TmrAB-containing or empty liposomes. To probe the conformational selectivity, CP^Fs (50 nM) were mixed with detergent-solubilized IF TmrAB or OF TmrA^EQB. Before, OF TmrA^EQB was nucleotide-trapped by incubation with ATP (1 mM) and MgCl2 (3 mM) in the absence of CP^Fs for 5 min at 45°C. […] For peptide competition studies, RRYC^fluoresceinKSTEL (C4F, 50 nM) were incubated with detergent-solubilized TmrAB (4 µM), CP^Bs (6 µM), or C4^ATTO655 (10 µM). […] Fluorescence anisotropy was analyzed at λex/em of 485/520 nm using a microplate reader (CLARIOstar, BMG LABTECH). Fluorescence anisotropy was calculated using:(1) r=I||−I⊥/I||+2⋅I⊥ with I||: parallel intensity and I⊥: perpendicular intensity. Binding of CP^Fs were fitted by a one-site binding model (Langmuir 1:1) using:(2) Y=Bmax∙[L]/KD+[L] with Y: binding, Bmax: maximal binding, KD: equilibrium dissociation constant, and [L]: ligand concentration. Data represent mean ± SD from three experiments.

Setting [2] is: CP^F 50 nM + TmrAB + competitor C4^ATTO655 peptide 2 µM.
[3] abbreviates: CP^F 50 nM + TmrAB + competitor R9LQK peptide 200 µM.
The mark [4] stands for this setting: listed as -: CP^F 50 nM before addition of TmrAB.
Where [5] appears, read: listed as TmrAB: CP^F 50 nM + TmrAB 0.5-0.7 µM, no competitor.

Positions of bridges follow the written chain, without caps; N, C: chain ends. Non-standard residues stand in square brackets, D forms with d. Residues, ends and D or L forms follow the SMILES beside them. *: point of attachment. 5FAM = O=C1OC2(c3ccc(O)cc3Oc3cc(O)ccc32)c2ccc(C(=O)*)cc21; βAla = NCCC(=O)O

Turning to `CC[C@H](C)[C@@H]1NC(=O)[C@H]([C@@H](C)O)NC(=O)[C@H](CC(C)C)NC(=O)[C@H](Cc2c[nH]c3ccccc23)NC(=O)[C@H](Cc2ccccc2)NC(=O)[C@H](CC(N)=O)NC(=O)[C@H](CCC(=O)O)NC(=O)[C@H](CC(C)C)NC(=O)[C@H](CS)NC(=O)[C@H](Cc2c[nH]cn2)NC(=O)[C@H](CO)NC(=O)[C@@H](Cc2ccc(O)cc2)NC(=O)CSC[C@@H](C(=O)NCC(=O)N[C@@H](CO)C(=O)NCCC(=O)NCCC(=O)N[C@@H](CCCNC(=N)N)C(=O)N[C@@H](CCCCNC(=O)c2ccc3c(c2)C(=O)OC32c3ccc(O)cc3Oc3cc(O)ccc32)C(N)=O)NC(=O)[C@H](CC(C)C)NC1=O` [CP6] ({CH2CO}-[dY]SHCLENFWLTILCGS[βAla][βAla]RK(5FAM)-NH2; thioether N-14), the “Bound CP^F” value in assay [1] (amount equal to 0.5000 µM) is recorded as -6.19%. Also, the “Bound CP^F, fluorescence anisotropy” value in the assay with TmrAB (setting [2]) was 0.109; in the assay with TmrAB (setting [3]) it was 0.101; in the assay with TmrAB (setting [4]) it was 0.022; in the assay with TmrAB (setting [5]) it was 0.111.
`CC(C)C[C@@H]1NC(=O)[C@H](Cc2ccccc2)NC(=O)CNC(=O)[C@H](CO)NC(=O)[C@H](Cc2ccccc2)NC(=O)[C@H](CC(=O)O)NC(=O)[C@@H]2CCCN2C(=O)[C@H]([C@@H](C)O)NC(=O)[C@@H](Cc2ccc(O)cc2)NC(=O)CSC[C@@H](C(=O)NCC(=O)N[C@@H](CO)C(=O)NCCC(=O)NCCC(=O)N[C@@H](CCCNC(=N)N)C(=O)N[C@@H](CCCCNC(=O)c2ccc3c(c2)C(=O)OC32c3ccc(O)cc3Oc3cc(O)ccc32)C(N)=O)NC(=O)[C@H](C)NC(=O)[C@H](CC(N)=O)NC(=O)[C@H](CCCNC(=N)N)NC(=O)[C@H](CC(C)C)NC(=O)[C@H](Cc2ccccc2)NC(=O)[C@H](C)NC1=O` [CP12] ({CH2CO}-[dY]TPDFSGFLAFLRNACGS[βAla][βAla]RK(5FAM)-NH2; thioether N-16): the “Bound CP^F” value in assay [1] (amount equal to 0.5000 µM) is -0.19%. Also, the “Bound CP^F, fluorescence anisotropy” value in the assay with TmrAB (setting [2]) amounted to 0.160; in the assay on TmrAB (setting [3]), 0.155; with TmrAB (setting [4]), 0.025; in the assay with TmrAB (setting [5]), 0.168.
Consider `CC[C@H](C)[C@@H]1NC(=O)[C@H](Cc2c[nH]c3ccccc23)NC(=O)[C@H](CC(N)=O)NC(=O)[C@H](C)NC(=O)[C@H](CO)NC(=O)[C@@H]2CCCN2C(=O)[C@H](CC(=O)O)NC(=O)[C@@H](Cc2ccc(O)cc2)NC(=O)CSC[C@@H](C(=O)NCC(=O)N[C@@H](CO)C(=O)NCCC(=O)NCCC(=O)N[C@@H](CCCNC(=N)N)C(=O)N[C@@H](CCCCNC(=O)c2ccc3c(c2)C(=O)OC32c3ccc(O)cc3Oc3cc(O)ccc32)C(N)=O)NC(=O)[C@H]([C@@H](C)O)NC(=O)[C@H](CC(C)C)NC(=O)[C@H](CC(C)C)NC(=O)[C@H](C(C)C)NC(=O)[C@H](CC(C)C)NC1=O` [CP13] ({CH2CO}-[dY]DPSANWILVLLTCGS[βAla][βAla]RK(5FAM)-NH2; thioether N-14; C-terminus assumed), for which the “Bound CP^F” value in assay [1] (amount equal to 0.2500 µM) is 3.65%. Further, the “Bound CP^F, fluorescence anisotropy” value in the assay on TmrAB (setting [2]) is on record as 0.122; with TmrAB (setting [3]), 0.123; in the assay on TmrAB (setting [4]) it was 0.025; in the assay on TmrAB (setting [5]), 0.127.
As for `CC(C)[C@@H]1NC(=O)[C@H](Cc2ccccc2)NC(=O)[C@@H]2CCCN2C(=O)[C@H](CC(N)=O)NC(=O)[C@H](Cc2c[nH]c3ccccc23)NC(=O)[C@H](C(C)C)NC(=O)[C@H](Cc2ccc(O)cc2)NC(=O)[C@H](Cc2ccccc2)NC(=O)[C@@H](Cc2ccc(O)cc2)NC(=O)CSC[C@@H](C(=O)NCC(=O)N[C@@H](CO)C(=O)NCCC(=O)NCCC(=O)N[C@@H](CCCNC(=N)N)C(=O)N[C@@H](CCCCNC(=O)c2ccc3c(c2)C(=O)OC32c3ccc(O)cc3Oc3cc(O)ccc32)C(N)=O)NC(=O)[C@H](CCCCN)NC(=O)[C@H](Cc2ccccc2)NC1=O` [CP14] ({CH2CO}-[dY]FYVWNPFVFKCGS[βAla][βAla]RK(5FAM)-NH2; thioether N-12; C-terminus assumed), in assay [1] (amount equal to 0.2500 µM), the “Bound CP^F” value was -5.24%. Moreover, the “Bound CP^F, fluorescence anisotropy” value came to 0.143 with TmrAB (setting [2]), 0.140 in the assay on TmrAB (setting [3]), 0.027 in the assay with TmrAB (setting [4]) and 0.141 with TmrAB (setting [5]).
